Measurements: PubChem BioAssay AID328 (DTP/NCI, 2004)
Values joined by “and” are separate entries in the source; they are usually repeats but may differ in a detail not shown here. Identical values can stand only once. Inconclusive results and toxic doses are left out.

Tested on: BDF1 mice, P388 leukemia ip, median survival T/C
Assay: NCI In Vivo Anticancer Drug Screen. Data for tumor model P388 Leukemia (intraperitoneal) in B6D2F1 (BDF1) mice
Settings: endpoint: median survival time, higher = longer survival
Method in brief: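 Steps: implant the tumour, treat one group with compound and another with vehicle, record survival, then divide treated by control.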

`COc1cc(NS(C)(=O)=O)ccc1Nc1c2ccccc2nc2ccccc12` was tested, and the T/C (dose: 0.25 mg/kg/injection, schedule: Q01DX009 (ip), vehicle: other) was 154 % of control, the T/C (dose: 0.25 mg/kg/injection, schedule: Q01DX009 (ip), vehicle: saline) was 150 % of control and the T/C (dose: 0.5 mg/kg/injection, schedule: Q01DX009 (ip), vehicle: other) was 161 % of control and 175 % of control. For the same compound, the T/C (dose: 0.57 mg/kg/injection, schedule: Q01DX009 (ip), vehicle: Klucel (hydroxypropylcellulose) (HPC)) was 210 % of control, the T/C (dose: 0.8 mg/kg/injection, schedule: Q01DX005 (ip), vehicle: other) was 182 % of control and the T/C (dose: 0.8 mg/kg/injection, schedule: Q01DX005 (iv), vehicle: other) was 104 % of control and 109 % of control. For the same compound, the T/C (dose: 0.8 mg/kg/injection, schedule: Q04DX003 (iv), vehicle: other) was 108 % of control, the T/C (dose: 0.85 mg/kg/injection, schedule: Q01DX009 (ip), vehicle: Klucel (hydroxypropylcellulose) (HPC)) was 195 % of control and the T/C (dose: 1.0 mg/kg/injection, schedule: Q01DX009 (ip), vehicle: other) was 175 % of control and 195 % of control. For the same compound, the T/C (dose: 1.3 mg/kg/injection, schedule: Q01DX009 (ip), vehicle: Klucel (hydroxypropylcellulose) (HPC)) was 173 % of control, the T/C (dose: 1.56 mg/kg/injection, schedule: Q01DX009 (ip), vehicle: Klucel (hydroxypropylcellulose) (HPC)) was 166 % of control and the T/C (dose: 1.6 mg/kg/injection, schedule: Q01DX005 (ip), vehicle: other) was 202 % of control. The T/C (dose: 1.6 mg/kg/injection, schedule: Q01DX005 (iv), vehicle: other) was 115 % of control and 120 % of control, the T/C (dose: 1.6 mg/kg/injection, schedule: Q04DX003 (iv), vehicle: other) was 107 % of control and the T/C (dose: 2.0 mg/kg/injection, schedule: Q01DX009 (ip), vehicle: Klucel (hydroxypropylcellulose) (HPC)) was 169 % of control. The T/C (dose: 2.0 mg/kg/injection, schedule: Q01DX009 (ip), vehicle: other) was 193 % of control and 216 % of control, the T/C (dose: 3.3 mg/kg/injection, schedule: Q01DX005 (ip), vehicle: other) was 220 % of control and the T/C (dose: 3.3 mg/kg/injection, schedule: Q04DX003 (iv), vehicle: other) was 122 % of control. The T/C (dose: 3.6 mg/kg/injection, schedule: Q04DX003 (ip), vehicle: clinical formulation) was 192 % of control, the T/C (dose: 3.6 mg/kg/injection, schedule: Q04DX003 (ip), vehicle: other) was 215 % of control and the T/C (dose: 4.12 mg/kg/injection, schedule: Q01DX009 (ip), vehicle: Klucel (hydroxypropylcellulose) (HPC)) was 227 % of control and 204 % of control. For the same compound, the T/C (dose: 5.4 mg/kg/injection, schedule: Q04DX003 (ip), vehicle: clinical formulation) was 210 % of control, the T/C (dose: 6.0 mg/kg/injection, schedule: Q04DX003 (ip), vehicle: clinical formulation) was 211 % of control and the T/C (dose: 6.0 mg/kg/injection, schedule: Q04DX003 (ip), vehicle: other) was 169 % of control. For the same compound, the T/C (dose: 6.25 mg/kg/injection, schedule: Q01DX009 (ip), vehicle: Klucel (hydroxypropylcellulose) (HPC)) was 236 % of control and 259 % of control and 272 % of control, the T/C (dose: 6.5 mg/kg/injection, schedule: Q04DX003 (iv), vehicle: other) was 116 % of control and the T/C (dose: 6.6 mg/kg/injection, schedule: Q04DX003 (ip), vehicle: other) was 236 % of control. For the same compound, the T/C (dose: 6.6 mg/kg/injection, schedule: Q08DX002 (ip), vehicle: other) was 191 % of control, the T/C (dose: 6.6 mg/kg/injection, schedule: Q08DX002 (iv), vehicle: other) was 118 % of control and the T/C (dose: 7.0 mg/kg/injection, schedule: Q04DX003 (ip), vehicle: lactic acid) was 225 % of control and 263 % of control and 272 % of control. For the same compound, the T/C (dose: 7.0 mg/kg/injection, schedule: Q04DX003 (ip), vehicle: saline with Tween-80) was 240 % of control, the T/C (dose: 9.0 mg/kg/injection, schedule: Q04DX003 (ip), vehicle: clinical formulation) was 215 % of control and the T/C (dose: 9.37 mg/kg/injection, schedule: Q01DX009 (ip), vehicle: Klucel (hydroxypropylcellulose) (HPC)) was 268 % of control and 104 % of control. The T/C (dose: 10.0 mg/kg/injection, schedule: Q04DX003 (ip), vehicle: clinical formulation) was 248 % of control, the T/C (dose: 10.0 mg/kg/injection, schedule: Q04DX003 (ip), vehicle: other) was 225 % of control and 272 % of control and the T/C (dose: 10.0 mg/kg/injection, schedule: Q08DX002 (ip), vehicle: other) was 193 % of control. The T/C (dose: 11.0 mg/kg/injection, schedule: Q04DX003 (ip), vehicle: lactic acid) was 291 % of control and 354 % of control and 541 % of control, the T/C (dose: 11.0 mg/kg/injection, schedule: Q04DX003 (ip), vehicle: saline with Tween-80) was 295 % of control and the T/C (dose: 12.5 mg/kg/injection, schedule: Q01DX009 (ip), vehicle: Klucel (hydroxypropylcellulose) (HPC)) was 260 % of control. The T/C (dose: 15.0 mg/kg/injection, schedule: Q04DX003 (ip), vehicle: other) was 111 % of control, the T/C (dose: 15.0 mg/kg/injection, schedule: Q04DX003 (iv), vehicle: other) was 157 % of control and the T/C (dose: 15.0 mg/kg/injection, schedule: Q08DX002 (ip), vehicle: other) was 245 % of control. The T/C (dose: 16.0 mg/kg/injection, schedule: Q04DX003 (ip), vehicle: lactic acid) was 190 % of control, the T/C (dose: 16.0 mg/kg/injection, schedule: Q04DX003 (ip), vehicle: saline with Tween-80) was 377 % of control and the T/C (dose: 16.7 mg/kg/injection, schedule: Q04DX003 (ip), vehicle: clinical formulation) was 118 % of control. The T/C (dose: 22.6 mg/kg/injection, schedule: Q04DX003 (iv), vehicle: other) was 170 % of control, the T/C (dose: 22.6 mg/kg/injection, schedule: Q08DX002 (iv), vehicle: other) was 190 % of control and the T/C (dose: 26.0 mg/kg/injection, schedule: Q04DX003 (iv), vehicle: other) was 203 % of control. The T/C (dose: 34.0 mg/kg/injection, schedule: Q04DX003 (iv), vehicle: other) was 200 % of control and the T/C (dose: 34.0 mg/kg/injection, schedule: Q08DX002 (iv), vehicle: other) was 200 % of control.
